Source: US20250042876A1, “HERBICIDAL PYRAZOLE PYRIMIDINE COMPOUNDS” (SYNGENTA CROP PROTECTION AG, priority 2021, published 2025)

Legend:
Type in all cases: in vivo
Settings in all cases: 250 g/ha, evaluated after 13 days
[1] = tested on: Amaranthus retoflexus (AMARE); experiment: Post-emergence herbicidal test, glasshouse
Description: (§1) Seeds of a variety of test species are sown in standard soil in pots Amaranthus palmeri (AMAPA), Amaranthus retoflexus (AMARE), Setaria faberi (SETFA), Echinochloa crus-galli (ECHCG), Ipomoea hederacea (IPOHE)). After cultivation for one day (pre-emergence) or after 8 days cultivation (post-emergence) under controlled conditions in a glasshouse (at 24/16° C., day/night; 14 hours light; 65% humidity), the plants are sprayed with an aqueous spray solution derived from the formulation of the technical active ingredient in acetone/water (50:50) solution containing 0.5% Tween 20 (polyoxyethelyene sorbitan monolaurate, CAS RN 9005-64-5). Compounds are applied at 250 g/ha unless otherwise stated. The test plants are then grown in a glasshouse under controlled conditions in a glasshouse (at 24/16° C., day/night; 14 hours light; 65% humidity) and watered twice daily. After 13 days for pre and post-emergence, the test is evaluated for the percentage damage caused to the plant. The biological activities are shown in the following table on a five-point scale (5=81-100%; 4=61-80%; 3=41-60%; 2=21-40%; 1=0-20%).

[2] = tested on: Echinochloa crus-galli (ECHCG); experiment: Post-emergence herbicidal test, glasshouse
Description: as §1

Setaria faberi (SETFA) [3] = experiment: Post-emergence herbicidal test, glasshouse
Description: as §1

[4] = tested on: Amaranthus palmeri (AMAPA); experiment: Post-emergence herbicidal test, glasshouse
Description: as §1

[5] = tested on: Ipomoea hederacea (IPOHE); experiment: Post-emergence herbicidal test, glasshouse
Description: as §1

[6] = tested on: Amaranthus retoflexus (AMARE); experiment: Pre-emergence herbicidal test, glasshouse
Description: as §1

[7] = tested on: Echinochloa crus-galli (ECHCG); experiment: Pre-emergence herbicidal test, glasshouse
Description: as §1

Setaria faberi (SETFA) [8] = experiment: Pre-emergence herbicidal test, glasshouse
Description: as §1

[9] = tested on: Amaranthus palmeri (AMAPA); experiment: Pre-emergence herbicidal test, glasshouse
Description: as §1

[10] = tested on: Ipomoea hederacea (IPOHE); experiment: Pre-emergence herbicidal test, glasshouse
Description: as §1

Row | Compound | AMARE percentage damage caused to the plant (five-point scale) [1] | ECHCG percentage damage caused to the plant (five-point scale) [2] | SETFA percentage damage caused to the plant (five-point scale) (Setaria faberi (SETFA) [3]) | AMAPA percentage damage caused to the plant (five-point scale) [4] | IPOHE percentage damage caused to the plant (five-point scale) [5] | AMARE percentage damage caused to the plant (five-point scale) [6] | ECHCG percentage damage caused to the plant (five-point scale) [7] | SETFA percentage damage caused to the plant (five-point scale) (Setaria faberi (SETFA) [8]) | AMAPA percentage damage caused to the plant (five-point scale) [9] | IPOHE percentage damage caused to the plant (five-point scale) [10]
1 | N#Cc1ccc(-n2nc(C(F)(F)F)cc2Cc2ncc(Cl)cn2)cc1 [Compound 1.007, 4-[5-[(5-chloropyrimidin-2-yl)methyl]-3-(trifluoromethyl)pyrazol-1-yl]benzonitrile] | 5 (5=81-100%) | 5 (5=81-100%) | 5 (5=81-100%) | 5 (5=81-100%) | 3 (3=41-60%) | 5 (5=81-100%) | 5 (5=81-100%) | 5 (5=81-100%) | 5 (5=81-100%) | 5 (5=81-100%)
2 | FC(F)c1cc(Cc2ncc(Cl)cn2)n(-c2ccc(C(F)(F)F)cc2)n1 [Compound 1.016] | 5 (5=81-100%) | 5 (5=81-100%) | 5 (5=81-100%) | 5 (5=81-100%) | 3 (3=41-60%) | 5 (5=81-100%) | 5 (5=81-100%) | 5 (5=81-100%) | 5 (5=81-100%) | 5 (5=81-100%)
3 | Cc1cnc(Cc2cc(C(F)(F)F)nn2-c2ccc(C(F)(F)F)cc2)nc1 [Compound 1.011] | 5 (5=81-100%) | 5 (5=81-100%) | 5 (5=81-100%) | 5 (5=81-100%) | 3 (3=41-60%) | 5 (5=81-100%) | 5 (5=81-100%) | 5 (5=81-100%) | 5 (5=81-100%) | 5 (5=81-100%)
4 | N#Cc1cnc(Cc2cc(C(F)(F)F)nn2-c2ccc(C(F)(F)F)cc2)nc1 [Compound 1.012] | 5 (5=81-100%) | 4 (4=61-80%) | 5 (5=81-100%) | 5 (5=81-100%) | 4 (4=61-80%) | 5 (5=81-100%) | 5 (5=81-100%) | 5 (5=81-100%) | 5 (5=81-100%) | 5 (5=81-100%)
